Measured values as given in ChEMBL document CHEMBL4270577, “Synthesis, anticancer activity and molecular modeling studies of 1,2,4-triazole derivatives as EGFR inhibitors” (Eur J Med Chem, 2018).

Columns and labels:
MCF7 [1] = test: Growth inhibition of human MCF7 cells at 10 uM incubated for 48 hrs by sulforhodamine B assay relative to control; format: functional; settings: MCF7, 48 h, read-out: GI
MIA PaCa-2 = test: Antiproliferative activity against human MIAPaCa2 cells after 48 hrs by propidium iodide staining-based fluorometric analysis; format: functional, cell-based; settings: MIA PaCa-2, 48 h
SK-OV-3 = test: Growth inhibition of human SKOV3 cells at 10 uM incubated for 48 hrs by sulforhodamine B assay relative to control; format: functional; settings: SK-OV-3, 48 h, read-out: GI
LOX IMVI = test: Growth inhibition of human LOXIMVI cells at 10 uM incubated for 48 hrs by sulforhodamine B assay relative to control; format: functional; settings: read-out: GI
K562 = test: Growth inhibition of human K562 cells at 10 uM incubated for 48 hrs by sulforhodamine B assay relative to control; format: functional; settings: K562, 48 h, read-out: GI
SNB-75 = test: Growth inhibition of human SNB75 cells at 10 uM incubated for 48 hrs by sulforhodamine B assay relative to control; format: functional; settings: SNB-75, 48 h, read-out: GI
PC-3 = test: Growth inhibition of human PC3 cells at 10 uM incubated for 48 hrs by sulforhodamine B assay relative to control; format: functional; settings: PC-3, 48 h, read-out: GI
ACHN = test: Growth inhibition of human ACHN cells at 10 uM incubated for 48 hrs by sulforhodamine B assay relative to control; format: functional; settings: read-out: GI
UO-31 [2] = test: Growth inhibition of human UO31 cells at 10 uM incubated for 48 hrs by sulforhodamine B assay relative to control; format: functional; settings: UO-31, 48 h, read-out: GI
HOP-92 = test: Growth inhibition of human HOP92 cells at 10 uM incubated for 48 hrs by sulforhodamine B assay relative to control; format: functional; settings: HOP-92, 48 h, read-out: GI
M14 = test: Growth inhibition of human M14 cells at 10 uM incubated for 48 hrs by sulforhodamine B assay relative to control; format: functional; settings: M14, 48 h, read-out: GI
CCRF-CEM = test: Growth inhibition of human CCRF-CEM cells at 10 uM incubated for 48 hrs by sulforhodamine B assay relative to control; format: functional; settings: read-out: GI
IGROV-1 = test: Growth inhibition of human IGROV1 cells at 10 uM incubated for 48 hrs by sulforhodamine B assay relative to control; format: functional; settings: IGROV-1, 48 h, read-out: GI
SW-620 = test: Growth inhibition of human SW620 cells at 10 uM incubated for 48 hrs by sulforhodamine B assay relative to control; format: functional; settings: SW-620, 48 h, read-out: GI
HT-29 = test: Growth inhibition of human HT-29 cells at 10 uM incubated for 48 hrs by sulforhodamine B assay relative to control; format: functional; settings: HT-29, 48 h, read-out: GI
OVCAR-3 = test: Growth inhibition of human OVCAR3 cells at 10 uM incubated for 48 hrs by sulforhodamine B assay relative to control; format: functional; settings: OVCAR-3, 48 h, read-out: GI
U-251 [3] = test: Growth inhibition of human U251 cells at 10 uM incubated for 48 hrs by sulforhodamine B assay relative to control; format: functional; settings: U-251, 48 h, read-out: GI
NCI-H460 [4] = test: Antiproliferative activity against human H460 cells after 48 hrs by propidium iodide staining-based fluorometric analysis; format: functional, cell-based; settings: NCI-H460, 48 h
T47D [5] = test: Growth inhibition of human T47D cells at 10 uM incubated for 48 hrs by sulforhodamine B assay relative to control; format: functional; settings: read-out: GI
MDA-MB-468 = test: Growth inhibition of human MDA-MB-468 cells at 10 uM incubated for 48 hrs by sulforhodamine B assay relative to control; format: functional; settings: MDA-MB-468, 48 h, read-out: GI
NCI-H460 [6] = test: Growth inhibition of human NCI-H460 cells at 10 uM incubated for 48 hrs by sulforhodamine B assay relative to control; format: functional; settings: NCI-H460, 48 h, read-out: GI
MOLT-4 = test: Growth inhibition of human MOLT4 cells at 10 uM incubated for 48 hrs by sulforhodamine B assay relative to control; format: functional; settings: MOLT-4, 48 h, read-out: GI
NCI-H23 = test: Growth inhibition of human NCI-H23 cells at 10 uM incubated for 48 hrs by sulforhodamine B assay relative to control; format: functional; settings: NCI-H23, 48 h, read-out: GI
MCF7 [7] = test: Cytotoxicity against human MCF7 cells incubated for 48 hrs by sulforhodamine B assay; format: functional; settings: MCF7, 48 h
UO-31 [8] = test: Cytotoxicity against human UO31 cells incubated for 48 hrs by sulforhodamine B assay; format: functional; settings: UO-31, 48 h
HCC 2998 = test: Growth inhibition of human HCC2998 cells at 10 uM incubated for 48 hrs by sulforhodamine B assay relative to control; format: functional; settings: HCC 2998, 48 h, read-out: GI
Malme-3M = test: Growth inhibition of human MALME-3M cells at 10 uM incubated for 48 hrs by sulforhodamine B assay relative to control; format: functional; settings: read-out: GI
NCI-H460 [9] = test: Cytotoxicity against human NCI-H460 cells incubated for 48 hrs by sulforhodamine B assay; format: functional; settings: NCI-H460, 48 h
T47D [10] = test: Cytotoxicity against human T47D cells incubated for 48 hrs by sulforhodamine B assay; format: functional
SK-MEL-28 = test: Cytotoxicity against human SK-MEL-28 cells incubated for 48 hrs by sulforhodamine B assay; format: functional; settings: SK-MEL-28, 48 h
A549 [11] = test: Cell cycle arrest in human A549 cells assessed as accumulation at G2 phase at 1.4 uM after 24 hrs by propidium iodide staining based flow cytometry (reference value: 4.19%); format: functional
BT-549 = test: Cytotoxicity against human BT549 cells incubated for 48 hrs by sulforhodamine B assay; format: functional; settings: BT-549, 48 h
U-251 [12] = test: Cytotoxicity against human U251 cells incubated for 48 hrs by sulforhodamine B assay; format: functional; settings: U-251, 48 h
SF-539 = test: Cytotoxicity against human SF539 cells incubated for 48 hrs by sulforhodamine B assay; format: functional; settings: SF-539, 48 h
A549 [13] = test: Induction of apoptosis in human A549 cells assessed as necrotic cells at 1.4 uM after 24 hrs by Annexin V/propidium iodide staining based flow cytometric analysis (reference value: 0.09%); format: functional
[14] = read-out: LC50 (the source's name)

Molecule `c1ccc(-c2nc3sc(-c4ccccc4)cn3n2)cc1` has an inhibition of growth at 10 µM (MCF7 [1]) of 61%, an IC50 (MIA PaCa-2) of 9.2 µM and an inhibition of growth at 10 µM (SK-OV-3) of 5%. It also gave an inhibition of growth at 10 µM (LOX IMVI) of 16%, an inhibition of growth at 10 µM (K562) of 11% and an inhibition of growth at 10 µM (SNB-75) of 15%. For the same molecule, the inhibition of growth at 10 µM (PC-3) was 37%, the inhibition of growth at 10 µM (ACHN) was 14% and the inhibition of growth at 10 µM (UO-31 [2]) was 53%. For the same molecule, the inhibition of growth at 10 µM (HOP-92) was 25%, the inhibition of growth at 10 µM (M14) was 13% and the inhibition of growth at 10 µM (CCRF-CEM) was 13%. The inhibition of growth at 10 µM (IGROV-1) was 43%, the inhibition of growth at 10 µM (SW-620) was 5% and the inhibition of growth at 10 µM (HT-29) was 9%. The inhibition of growth at 10 µM (OVCAR-3) was 16%, the inhibition of growth at 10 µM (U-251 [3]) was 6% and the IC50 (NCI-H460 [4]) was 8.3 µM. For the same molecule, the inhibition of growth at 10 µM (T47D [5]) was 63%, the inhibition of growth at 10 µM (MDA-MB-468) was 14% and the inhibition of growth at 10 µM (NCI-H460 [6]) was 6%. The inhibition of growth at 10 µM (MOLT-4) was 11% and the inhibition of growth at 10 µM (NCI-H23) was 16%.

In the case of `COc1ccc(-c2nc3sc(-c4ccc(Cl)cc4)cn3n2)cc1`, the inhibition of growth at 10 µM (MCF7 [1]) is reported as 51.1%, the IC50 (MIA PaCa-2) is reported as 2.6 µM and the inhibition of growth at 10 µM (SK-OV-3) is reported as 50.5%. The inhibition of growth at 10 µM (LOX IMVI) was 45.8%, the GI50 (MCF7 [7]) was 2.62 µM and the TGI (MCF7 [7]) was > 50 µM. The CC50 (MCF7 [7]; [14]) was > 50 µM, the inhibition of growth at 10 µM (K562) was 38.5% and the inhibition of growth at 10 µM (SNB-75) was -1.66%. The GI50 (UO-31 [8]) was 1.19 µM, the TGI (UO-31 [8]) was 4.51 µM and the CC50 (UO-31 [8]; [14]) was 30.6 µM. For the same molecule, the inhibition of growth at 10 µM (HCC 2998) was 21.4%, the inhibition of growth at 10 µM (PC-3) was 41.9% and the inhibition of growth at 10 µM (Malme-3M) was 49.2%. The inhibition of growth at 10 µM (ACHN) was -74%, the GI50 (NCI-H460 [9]) was 1.33 µM and the TGI (NCI-H460 [9]) was 4 µM. It also gave a CC50 (NCI-H460 [9]; [14]) of 18.9 µM, an inhibition of growth at 10 µM (UO-31 [2]) of -7.46% and a GI50 (T47D [10]) of 3.54 µM. The TGI (T47D [10]) was > 50 µM, the CC50 (T47D [10]; [14]) was > 50 µM and the inhibition of growth at 10 µM (HOP-92) was 79.5%. It also gave an inhibition of growth at 10 µM (M14) of 9%, an inhibition of growth at 10 µM (CCRF-CEM) of 30.5% and an inhibition of growth at 10 µM (IGROV-1) of 92.9%. The GI50 (SK-MEL-28) was > 50 µM, the TGI (SK-MEL-28) was > 50 µM and the CC50 (SK-MEL-28; [14]) was > 50 µM. It also gave an inhibition of growth at 10 µM (SW-620) of 40.4%, an inhibition of growth at 10 µM (HT-29) of 82.7% and an Activity (A549 [11]) of 14.36%. For the same molecule, the inhibition of growth at 10 µM (OVCAR-3) was 75.3%, the inhibition of growth at 10 µM (U-251 [3]) was -67.9% and the IC50 (NCI-H460 [4]) was 1.6 µM. The GI50 (BT-549) was 43.2 µM, the TGI (BT-549) was > 50 µM and the CC50 (BT-549; [14]) was > 50 µM. The GI50 (U-251 [12]) was 1.03 µM, the TGI (U-251 [12]) was 2.29 µM and the CC50 (U-251 [12]; [14]) was 5.53 µM. It also gave an inhibition of growth at 10 µM (T47D [5]) of 45.1%, a GI50 (SF-539) of 1.85 µM and a TGI (SF-539) of 21.5 µM. For the same molecule, the CC50 (SF-539; [14]) was > 50 µM, the inhibition of growth at 10 µM (MDA-MB-468) was 66.6% and the inhibition of growth at 10 µM (NCI-H460 [6]) was -39%. It also gave an Activity (A549 [13]) of 1.34%, an inhibition of growth at 10 µM (MOLT-4) of 17.4% and an inhibition of growth at 10 µM (NCI-H23) of 41.5%.

Work on `Clc1ccc(-c2cn3nc(-c4ccccc4)nc3s2)cc1` yielded an inhibition of growth at 10 µM (MCF7 [1]) of 35%, an IC50 (MIA PaCa-2) of 6.5 µM and an inhibition of growth at 10 µM (SK-OV-3) of 64%. It also gave an inhibition of growth at 10 µM (LOX IMVI) of 19%, an inhibition of growth at 10 µM (K562) of 24% and an inhibition of growth at 10 µM (SNB-75) of 36%. It also gave an inhibition of growth at 10 µM (HCC 2998) of 10%, an inhibition of growth at 10 µM (PC-3) of 31% and an inhibition of growth at 10 µM (Malme-3M) of 10%. For the same molecule, the inhibition of growth at 10 µM (ACHN) was 49%, the inhibition of growth at 10 µM (UO-31 [2]) was 40% and the inhibition of growth at 10 µM (HOP-92) was 53%. For the same molecule, the inhibition of growth at 10 µM (M14) was 15%, the inhibition of growth at 10 µM (CCRF-CEM) was 6% and the inhibition of growth at 10 µM (IGROV-1) was 55%. For the same molecule, the inhibition of growth at 10 µM (SW-620) was 13%, the inhibition of growth at 10 µM (HT-29) was 26% and the inhibition of growth at 10 µM (OVCAR-3) was 24%. The inhibition of growth at 10 µM (U-251 [3]) was 25%, the IC50 (NCI-H460 [4]) was 5.1 µM and the inhibition of growth at 10 µM (T47D [5]) was 74%. It also gave an inhibition of growth at 10 µM (MDA-MB-468) of 57%, an inhibition of growth at 10 µM (NCI-H460 [6]) of 37% and an inhibition of growth at 10 µM (MOLT-4) of 8%. For the same molecule, the inhibition of growth at 10 µM (NCI-H23) was 33%.
